What was measured:
[1] = test system: off-target kinases; experiment: KinaseProfiler off-target kinase profiling, full kinase panel; format: biochemical; conditions: 10 μM; panel of about 230 kinases
Method: (§1) A representative compound (Example 15) of the invention was tested for off-target kinase activity at a concentration of 10 μM by Millipore, Inc. in their KinaseProfiler™ service against all the kinases available in their full kinase panel. The compound was run in duplicate at a concentration of ATP near the Km for each individual kinase according to Millipore's specifications. The results are shown in Table B. Data are reported as percent of control (POC) and are the average of the two replicates.
Such a drug profile would represent a safer approach to treating pain, inflammation, cancer and certain skin diseases than has been previously reported.

[2] = biological target: T1, BTK (Homo sapiens, UniProt Q06187); experiment: KinaseProfiler; format: biochemical; conditions: 10 μM, ATP near Km
T1 construct: purchased Millipore (KinaseProfiler service)
Method: as §1

[3] = biological target: T2, CK2alpha2 (Homo sapiens, UniProt P19784); experiment: KinaseProfiler; format: biochemical; conditions: 10 μM, ATP near Km
T2 construct: purchased Millipore, Inc. (KinaseProfiler service)
Method: as §1

[4] = biological target: T3, CSK (Homo sapiens, UniProt P41240); experiment: KinaseProfiler; format: biochemical; conditions: 10 μM, ATP near Km
T3 construct: purchased Millipore, Inc. (KinaseProfiler service)
Method: as §1

[5] = biological target: T4, ERK1 (Homo sapiens, UniProt P27361); experiment: KinaseProfiler; format: biochemical; conditions: 10 μM, ATP near Km
T4 construct: purchased Millipore, Inc. (KinaseProfiler service)
Method: as §1

[6] = biological target: T5, ERK2 (Homo sapiens, UniProt P28482); experiment: KinaseProfiler; format: biochemical; conditions: 10 μM, ATP near Km
T5 construct: purchased Millipore, Inc. (KinaseProfiler service)
Method: as §1

[7] = biological target: T6, EphA5 (Homo sapiens, UniProt P54756); experiment: KinaseProfiler; format: biochemical; conditions: 10 μM, ATP near Km
T6 construct: purchased Millipore, Inc. (KinaseProfiler service)
Method: as §1

[8] = biological target: T7, FGFR1 (Homo sapiens, UniProt P11362); experiment: KinaseProfiler; format: biochemical; conditions: 10 μM, ATP near Km
T7 construct: purchased Millipore, Inc. (KinaseProfiler service)
Method: as §1

[9] = biological target: T8, FGFR4 (Homo sapiens, UniProt P22455); experiment: KinaseProfiler; format: biochemical; conditions: 10 μM, ATP near Km
T8 construct: purchased Millipore, Inc. (KinaseProfiler service)
Method: as §1

[10] = biological target: T9, Fms (Homo sapiens, UniProt P07333); experiment: KinaseProfiler; format: biochemical; conditions: 10 μM, ATP near Km
T9 construct: purchased Millipore, Inc. (KinaseProfiler service)
Method: as §1

[11] = biological target: T10, Fyn (Homo sapiens, UniProt P06241); experiment: KinaseProfiler; format: biochemical; conditions: 10 μM, ATP near Km
T10 construct: purchased Millipore, Inc. (KinaseProfiler service)
Method: as §1

[12] = biological target: T11, GSK3alpha (Homo sapiens, UniProt P49840); experiment: KinaseProfiler; format: biochemical; conditions: 10 μM, ATP near Km
T11 construct: purchased Millipore, Inc. (KinaseProfiler service)
Method: as §1

[13] = biological target: T12, HIPK3 (Homo sapiens, UniProt Q9H422); experiment: KinaseProfiler; format: biochemical; conditions: 10 μM, ATP near Km
T12 construct: purchased Millipore, Inc. (KinaseProfiler service)
Method: as §1

[14] = biological target: T13, KDR (Homo sapiens, UniProt P35968); experiment: KinaseProfiler; format: biochemical; conditions: 10 μM, ATP near Km
T13 construct: purchased Millipore, Inc. (KinaseProfiler service)
Method: as §1

[15] = biological target: T14, LOK (Homo sapiens, UniProt O94804); experiment: KinaseProfiler; format: biochemical; conditions: 10 μM, ATP near Km
T14 construct: purchased Millipore, Inc. (KinaseProfiler service)
Method: as §1

[16] = biological target: T15, Lyn (Homo sapiens, UniProt P07948); experiment: KinaseProfiler; format: biochemical; conditions: 10 μM, ATP near Km
T15 construct: purchased Millipore, Inc. (KinaseProfiler service)
Method: as §1

[17] = biological target: T16, MAPKAP-K2 (Homo sapiens, UniProt P49137); experiment: KinaseProfiler; format: biochemical; conditions: 10 μM, ATP near Km
T16 construct: purchased Millipore, Inc. (KinaseProfiler service)
Method: as §1

[18] = biological target: T17, MEK1 (Homo sapiens, UniProt Q02750); experiment: KinaseProfiler; format: biochemical; conditions: 10 μM, ATP near Km
T17 construct: purchased Millipore, Inc. (KinaseProfiler service)
Method: as §1

[19] = biological target: T18, MLK1 (Homo sapiens, UniProt P80192); experiment: KinaseProfiler; format: biochemical; conditions: 10 μM, ATP near Km
T18 construct: purchased Millipore, Inc. (KinaseProfiler service)
Method: as §1

[20] = biological target: T19, NEK7 (Homo sapiens, UniProt Q8TDX7); experiment: KinaseProfiler; format: biochemical; conditions: 10 μM, ATP near Km
T19 construct: purchased Millipore, Inc. (KinaseProfiler service)
Method: as §1

[21] = biological target: T20, PAK6 (Homo sapiens, UniProt Q9NQU5); experiment: KinaseProfiler; format: biochemical; conditions: 10 μM, ATP near Km
T20 construct: purchased Millipore, Inc. (KinaseProfiler service)
Method: as §1

[22] = biological target: T21, Plk3 (Homo sapiens, UniProt Q9H4B4); experiment: KinaseProfiler; format: biochemical; conditions: 10 μM, ATP near Km
T21 construct: purchased Millipore, Inc. (KinaseProfiler service)
Method: as §1

[23] = biological target: T22, Ros (Homo sapiens, UniProt P08922); experiment: KinaseProfiler; format: biochemical; conditions: 10 μM, ATP near Km
T22 construct: purchased Millipore, Inc. (KinaseProfiler service)
Method: as §1

[24] = biological target: T23, SIK (Homo sapiens, UniProt P57059); experiment: KinaseProfiler; format: biochemical; conditions: 10 μM, ATP near Km
T23 construct: purchased Millipore, Inc. (KinaseProfiler service)
Method: as §1

[25] = biological target: T24, SRPK2 (Homo sapiens, UniProt P78362); experiment: KinaseProfiler; format: biochemical; conditions: 10 μM, ATP near Km
T24 construct: purchased Millipore, Inc. (KinaseProfiler service)
Method: as §1

[26] = biological target: T25, TAO1 (Homo sapiens, UniProt Q7L7X3); experiment: KinaseProfiler; format: biochemical; conditions: 10 μM, ATP near Km
T25 construct: purchased Millipore, Inc. (KinaseProfiler service)
Method: as §1

[27] = biological target: T26, c-RAF (Homo sapiens, UniProt P04049, Y340D/Y341D); experiment: KinaseProfiler; format: biochemical; conditions: 10 μM, ATP near Km
T26 construct: purchased Millipore, Inc. (KinaseProfiler service)
Method: as §1

[28] = biological target: T27, eEF-2K (Homo sapiens, UniProt O00418); experiment: KinaseProfiler; format: biochemical; conditions: 10 μM, ATP near Km
T27 construct: purchased Millipore, Inc. (KinaseProfiler service)
Method: as §1

[29] = biological target: T28, mTOR/FKBP12 (Homo sapiens, UniProt P42345); experiment: KinaseProfiler; format: biochemical; conditions: 10 μM, ATP near Km
T28 construct: purchased Millipore, Inc. (KinaseProfiler service)
Method: as §1

[30] = biological target: TrkA (Homo sapiens, UniProt P04629); experiment: TrkA LanthaScreen Eu Kinase Binding Assay; design: 6HIS tagged cytoplasmic domain from Invitrogen, Catalog No. PV3144; purchased Invitrogen PV3144; conditions: averaged IC50; TR-FRET binding assay; read-out: TrkA Enzyme IC50
Method: TrkA binding activity was determined in a TrkA LanthaScreen™ Eu Kinase Binding Assay. 5 nM His-tagged recombinant human TrkA (6HIS tagged cytoplasmic domain from Invitrogen, Catalog No. PV3144) was incubated with 4 nM Alexa-Fluor® Tracer 236 (Invitrogen Cat. No. PV5592), 2 nM biotinylated anti-His (Invitrogen Cat. No. PV6090), and 2 nM europium-labeled Streptavidin (Invitrogen Cat. No. PV5899), in buffer (25 mM MOPS, pH 7.5, 5 mM MgCl2, 0.005% Triton X-100). Three fold serial dilutions of compounds of the invention in DMSO were added to a final percentage of 2% DMSO. After 60-minute incubation at 22° C., the reaction was measured using the EnVision mutlimode plate reader (PerkinElmer) via TR-FRET dual wavelength detection at […]. The percent of control was calculated using a ratiometric emission factor. The IC50 values were determined by fitting a four parameter model to the percent of control data.
Table A provides averaged IC50 values for compounds of the invention when tested in the assay of Example A, where A represents an averaged IC50 value<100 nM; B represents an averaged IC50 value from 100 to 1,000 nM; and C represents an averaged IC50 value from 1,000 to 10,000 nM.

T14 sequence (O94804 whole entry): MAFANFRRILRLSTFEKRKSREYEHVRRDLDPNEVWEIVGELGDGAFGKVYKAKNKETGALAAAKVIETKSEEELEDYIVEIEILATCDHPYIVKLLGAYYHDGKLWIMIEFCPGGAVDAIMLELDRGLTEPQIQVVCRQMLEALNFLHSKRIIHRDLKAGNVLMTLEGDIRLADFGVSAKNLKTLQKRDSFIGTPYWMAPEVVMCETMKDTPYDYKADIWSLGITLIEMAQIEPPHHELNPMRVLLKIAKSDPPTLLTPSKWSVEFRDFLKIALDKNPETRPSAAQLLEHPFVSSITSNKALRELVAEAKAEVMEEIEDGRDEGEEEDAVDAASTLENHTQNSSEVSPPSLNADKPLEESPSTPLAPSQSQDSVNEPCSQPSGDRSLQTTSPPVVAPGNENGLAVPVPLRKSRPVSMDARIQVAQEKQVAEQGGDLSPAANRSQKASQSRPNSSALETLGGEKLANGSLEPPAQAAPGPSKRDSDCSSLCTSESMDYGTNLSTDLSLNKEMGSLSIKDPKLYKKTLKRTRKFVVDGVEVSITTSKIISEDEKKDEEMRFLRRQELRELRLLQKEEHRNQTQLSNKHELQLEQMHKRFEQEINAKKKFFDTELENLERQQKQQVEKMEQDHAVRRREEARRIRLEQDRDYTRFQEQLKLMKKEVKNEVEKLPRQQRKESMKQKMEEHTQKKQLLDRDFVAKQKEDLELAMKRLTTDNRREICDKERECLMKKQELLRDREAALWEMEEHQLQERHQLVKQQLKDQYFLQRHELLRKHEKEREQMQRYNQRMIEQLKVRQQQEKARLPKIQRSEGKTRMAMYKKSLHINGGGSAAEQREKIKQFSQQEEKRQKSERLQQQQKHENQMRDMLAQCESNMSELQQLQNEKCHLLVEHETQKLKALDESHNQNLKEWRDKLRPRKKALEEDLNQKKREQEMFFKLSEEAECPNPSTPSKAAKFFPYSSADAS
T18 sequence (P80192 whole entry): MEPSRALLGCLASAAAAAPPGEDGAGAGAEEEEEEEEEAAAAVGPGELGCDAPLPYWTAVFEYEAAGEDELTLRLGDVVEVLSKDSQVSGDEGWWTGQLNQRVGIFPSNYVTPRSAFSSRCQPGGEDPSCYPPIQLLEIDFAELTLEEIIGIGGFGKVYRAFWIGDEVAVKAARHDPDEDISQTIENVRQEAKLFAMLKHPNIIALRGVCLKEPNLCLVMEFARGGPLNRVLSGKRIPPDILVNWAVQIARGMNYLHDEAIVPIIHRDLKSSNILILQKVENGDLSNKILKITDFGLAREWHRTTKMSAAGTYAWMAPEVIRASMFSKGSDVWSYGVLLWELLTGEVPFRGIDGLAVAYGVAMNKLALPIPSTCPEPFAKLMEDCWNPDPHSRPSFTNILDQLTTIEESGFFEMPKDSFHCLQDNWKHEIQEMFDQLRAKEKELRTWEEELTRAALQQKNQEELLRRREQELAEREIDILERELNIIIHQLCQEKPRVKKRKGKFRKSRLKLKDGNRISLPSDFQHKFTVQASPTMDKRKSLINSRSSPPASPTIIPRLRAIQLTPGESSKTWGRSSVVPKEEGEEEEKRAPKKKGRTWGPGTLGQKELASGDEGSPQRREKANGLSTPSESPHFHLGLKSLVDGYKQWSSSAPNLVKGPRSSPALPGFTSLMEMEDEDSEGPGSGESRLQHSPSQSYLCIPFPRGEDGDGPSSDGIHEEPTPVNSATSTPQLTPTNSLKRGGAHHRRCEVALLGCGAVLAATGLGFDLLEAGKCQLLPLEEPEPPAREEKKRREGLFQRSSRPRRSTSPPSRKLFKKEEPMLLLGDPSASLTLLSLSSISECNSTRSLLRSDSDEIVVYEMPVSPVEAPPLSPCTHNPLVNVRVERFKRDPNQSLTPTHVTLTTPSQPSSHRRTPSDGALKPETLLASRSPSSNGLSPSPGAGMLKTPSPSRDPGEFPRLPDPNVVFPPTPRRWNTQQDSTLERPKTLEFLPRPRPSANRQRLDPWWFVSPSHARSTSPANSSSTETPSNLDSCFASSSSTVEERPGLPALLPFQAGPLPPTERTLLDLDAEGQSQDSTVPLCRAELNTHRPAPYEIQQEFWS
T15 sequence (P07948 whole entry): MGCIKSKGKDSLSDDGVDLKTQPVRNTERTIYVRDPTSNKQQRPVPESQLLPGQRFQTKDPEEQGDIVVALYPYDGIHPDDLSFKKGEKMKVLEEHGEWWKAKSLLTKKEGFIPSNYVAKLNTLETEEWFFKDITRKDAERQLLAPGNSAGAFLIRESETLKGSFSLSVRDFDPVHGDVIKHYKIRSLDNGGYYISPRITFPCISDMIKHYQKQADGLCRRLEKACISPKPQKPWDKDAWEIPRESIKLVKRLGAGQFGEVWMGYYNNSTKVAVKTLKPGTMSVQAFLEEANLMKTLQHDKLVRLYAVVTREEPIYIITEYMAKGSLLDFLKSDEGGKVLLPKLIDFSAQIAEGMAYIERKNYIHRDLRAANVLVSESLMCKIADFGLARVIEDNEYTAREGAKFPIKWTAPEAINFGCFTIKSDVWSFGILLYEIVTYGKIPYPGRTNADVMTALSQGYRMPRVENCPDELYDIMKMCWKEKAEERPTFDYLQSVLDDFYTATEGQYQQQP
T11 sequence (P49840 whole entry): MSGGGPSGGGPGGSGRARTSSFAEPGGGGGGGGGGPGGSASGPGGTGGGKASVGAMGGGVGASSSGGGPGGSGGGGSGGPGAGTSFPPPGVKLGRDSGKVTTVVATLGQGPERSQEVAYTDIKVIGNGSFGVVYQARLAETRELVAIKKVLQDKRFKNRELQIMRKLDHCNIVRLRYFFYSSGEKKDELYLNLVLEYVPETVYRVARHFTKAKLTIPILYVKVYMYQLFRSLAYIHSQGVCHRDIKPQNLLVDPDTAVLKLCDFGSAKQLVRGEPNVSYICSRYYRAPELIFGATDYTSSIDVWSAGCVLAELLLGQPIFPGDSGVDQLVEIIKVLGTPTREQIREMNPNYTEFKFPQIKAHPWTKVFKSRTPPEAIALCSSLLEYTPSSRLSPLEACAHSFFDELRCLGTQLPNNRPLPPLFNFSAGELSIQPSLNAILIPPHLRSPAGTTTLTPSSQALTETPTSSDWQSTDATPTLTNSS
Chain of TrkA (P04629 440-796 limits assumed): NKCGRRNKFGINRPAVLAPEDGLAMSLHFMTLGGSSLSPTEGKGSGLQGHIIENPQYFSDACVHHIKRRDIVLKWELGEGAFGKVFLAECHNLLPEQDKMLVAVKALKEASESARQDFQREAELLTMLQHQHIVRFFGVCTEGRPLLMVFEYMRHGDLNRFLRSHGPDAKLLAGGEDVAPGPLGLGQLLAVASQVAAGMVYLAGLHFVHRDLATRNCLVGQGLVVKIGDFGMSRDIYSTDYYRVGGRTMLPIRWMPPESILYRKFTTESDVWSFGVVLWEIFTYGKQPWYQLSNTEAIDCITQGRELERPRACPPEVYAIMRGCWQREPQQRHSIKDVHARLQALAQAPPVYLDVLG
T13 sequence (P35968 20-1356): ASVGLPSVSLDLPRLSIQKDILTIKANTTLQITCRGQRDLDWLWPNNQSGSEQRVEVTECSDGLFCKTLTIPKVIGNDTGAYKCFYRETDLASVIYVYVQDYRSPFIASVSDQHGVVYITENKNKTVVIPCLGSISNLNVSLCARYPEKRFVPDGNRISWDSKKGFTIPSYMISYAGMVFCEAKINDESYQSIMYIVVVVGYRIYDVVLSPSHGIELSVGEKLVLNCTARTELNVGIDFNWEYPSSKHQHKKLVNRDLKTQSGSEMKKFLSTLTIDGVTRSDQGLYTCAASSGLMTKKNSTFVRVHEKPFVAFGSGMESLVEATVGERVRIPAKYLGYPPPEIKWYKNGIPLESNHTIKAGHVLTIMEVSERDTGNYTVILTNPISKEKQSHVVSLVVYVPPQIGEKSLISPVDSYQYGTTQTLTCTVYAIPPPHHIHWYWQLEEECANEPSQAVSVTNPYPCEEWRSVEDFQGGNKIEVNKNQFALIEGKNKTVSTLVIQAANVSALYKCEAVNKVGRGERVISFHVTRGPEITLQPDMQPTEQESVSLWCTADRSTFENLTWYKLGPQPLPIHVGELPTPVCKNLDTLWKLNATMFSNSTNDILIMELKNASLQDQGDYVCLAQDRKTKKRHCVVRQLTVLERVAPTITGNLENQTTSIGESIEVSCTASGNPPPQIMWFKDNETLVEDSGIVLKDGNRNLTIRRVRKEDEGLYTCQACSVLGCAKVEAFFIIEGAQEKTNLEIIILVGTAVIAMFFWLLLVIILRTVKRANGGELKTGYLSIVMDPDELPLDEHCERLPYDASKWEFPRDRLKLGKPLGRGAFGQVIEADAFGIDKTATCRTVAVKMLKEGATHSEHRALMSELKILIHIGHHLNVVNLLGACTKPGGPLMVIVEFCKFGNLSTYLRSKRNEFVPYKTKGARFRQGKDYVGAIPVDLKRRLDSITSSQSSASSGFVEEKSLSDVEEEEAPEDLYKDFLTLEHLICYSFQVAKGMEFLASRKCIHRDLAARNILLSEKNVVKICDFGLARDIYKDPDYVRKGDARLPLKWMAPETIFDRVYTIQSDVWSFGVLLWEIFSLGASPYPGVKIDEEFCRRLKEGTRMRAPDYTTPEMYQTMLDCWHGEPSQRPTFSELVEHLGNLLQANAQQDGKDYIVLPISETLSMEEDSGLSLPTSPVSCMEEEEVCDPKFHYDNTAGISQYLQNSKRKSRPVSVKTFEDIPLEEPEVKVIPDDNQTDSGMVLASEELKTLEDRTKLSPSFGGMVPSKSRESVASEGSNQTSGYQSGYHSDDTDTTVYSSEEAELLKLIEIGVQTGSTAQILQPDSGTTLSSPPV
T19 sequence (Q8TDX7 whole entry): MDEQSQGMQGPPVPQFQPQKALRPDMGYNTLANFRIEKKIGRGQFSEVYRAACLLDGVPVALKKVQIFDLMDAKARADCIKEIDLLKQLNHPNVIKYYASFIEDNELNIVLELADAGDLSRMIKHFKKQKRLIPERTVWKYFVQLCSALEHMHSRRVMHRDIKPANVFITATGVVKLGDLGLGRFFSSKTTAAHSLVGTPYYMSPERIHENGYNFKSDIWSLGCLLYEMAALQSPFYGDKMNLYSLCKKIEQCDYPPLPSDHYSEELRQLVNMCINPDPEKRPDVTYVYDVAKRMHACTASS

Avg POC [2]: 119.5 POC
Avg POC [3]: 112.5 POC
Avg POC [4]: 139 POC
Avg POC [5]: 103.5 POC
Avg POC [6]: 108 POC
Avg POC [7]: 115.5 POC
Avg POC [8]: 111.5 POC
Avg POC [9]: 120 POC
Avg POC [10]: 94 POC
Avg POC [11]: 111.5 POC
Avg POC [12]: 131 POC
Avg POC [13]: 101 POC
Avg POC [14]: 136 POC
Avg POC [15]: 135 POC
Avg POC [16]: 84.5 POC
Avg POC [17]: 129.5 POC
Avg POC [18]: 121.5 POC
Avg POC [19]: 110.5 POC
Avg POC [20]: 142 POC
Avg POC [21]: 148 POC
Avg POC [22]: 109 POC
Avg POC [23]: 105.5 POC
Avg POC [24]: 137 POC
Avg POC [25]: 113.5 POC
Avg POC [26]: 113 POC
Avg POC [27]: 98.5 POC
Avg POC [28]: 181 POC
Avg POC [29]: 97.5 POC
IC50 [30]: < 100 nM
Compound: COCCCc1cc(Cl)c(Cl)cc1NC(=O)Nc1c(C)c(-c2cnn(C)c2)nn1-c1ccccc1 [Example 15, 1-(4,5-dichloro-2-(3-methoxypropyl)phenyl)-3-(1′,4-dimethyl-1-phenyl-1H,1′H-[3,4′-bipyrazol]-5-yl)urea]
off-target kinase activity / selectivity for TrkA versus other kinases in the panel [1]: largely inactive against off-target kinases

From patent US9790210B2, “N-(monocyclic aryl),N'-pyrazolyl-urea, thiourea, guanidine and cyanoguanidine compounds as TrkA kinase inhibitors” (Array BioPharma Inc., priority 2012, dated 2017)
